Assay results as given in patent US11208387B2, “Macrocyclic broad spectrum antibiotics” (Genentech, Inc., priority 2019, dated 2021).
≈ marks a conversion by molar mass, not a printed value. Like-named read-outs stand apart in the source and are kept apart here.

What was measured:
Assay in all cases: Serum MIC, broth micro-dilution
Assay type in all cases: cell-based
[1] = test system: Acinetobacter baumannii ATCC 17978; details: 50% v/v mouse serum in Mueller Hinton II cation adjusted Broth, 35° C., 22 hours
Procedure, shortened: (§1)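 CLSI broth micro-dilution MIC run in 50% v/v cation-adjusted Mueller Hinton II broth plus 50% v/v mouse serum. Compounds were serially 2-fold diluted (10 concentrations) from a top concentration of 64, 4, 0.5 or 0.13 μg/mL; inoculum at final OD600 0.0005, incubated 35° C for 22 hours.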

[2] = test system: Escherichia coli strain ATCC 25922; details: 50% v/v mouse serum in Mueller Hinton II cation adjusted Broth, 35° C., 22 hours, Table 4, read-out: E. coli 25922 Serum MIC
Procedure, shortened: as §1

[3] = test system: Klebsiella pneumoniae ATCC 700603; details: 50% v/v mouse serum in Mueller Hinton II cation adjusted Broth, 35° C., 22 hours, Table 4
Procedure, shortened: as §1

[4] = test system: Pseudomonas aeruginosa PA01; details: 50% v/v mouse serum in Mueller Hinton II cation adjusted Broth, 35° C., 22 hours, Table 4; for MIC: Pseudomonas aeruginosa, PA01, read-out: P. aeruginosa 01 Serum MIC
Procedure, shortened: as §1

[5] = Acinetobacter baumannii, ATCC17978, Table 4, read-out: A. baumanii 17978 Serum MIC
[6] = Acinetobacter baumannii, ATCC17978, Table 5, read-out: Acinetobacter baumanii 17978 Serum MIC
[7] = Klebsiella pneumoniae, ATCC700603, read-out: K pneumoniae 700603 Serum MIC

Row | MIC [1, 5] [µM] | MIC [1, 6] [µM] | MIC ([2]; Escherichia coli, ATCC25922) [µM] | MIC [3, 7] [µM] | MIC [4] [µM] | Structure (SMILES) | MIC ([1]; Table 4, read-out: A. baumanii 17978 Serum MIC) [µM] | MIC ([1]; Table 5, read-out: Acinetobacter baumanii 17978 Serum MIC) [µM] | MIC [2] [µM] | MIC ([3]; read-out: K. pneumoniae 700603 Serum MIC) [µM] | P. aeruginosa 01 Serum MIC [4] [µM]
1 | – | – | – | – | – | COc1c(OC[C@H](O)CN)cc2cc1-c1cc(ccc1OC[C@H](O)CN)C[C@@H](C(=O)O)NC(=O)[C@H](C)NC(=O)[C@H]2N(C)C(=O)[C@H](CNS(N)(=O)=O)NC(=O)c1c(C)nc(-c2ccc(C(C)(C)C)cc2)nc1N [Example 75, (8S,11S,14S)-14-[[(2S)-2-[[4-amino-2-(4-tert-butylphenyl)-6-methyl-pyrimidine-5-carbonyl]amino]-3-(sulfamoylamino)-propanoyl]-methyl-amino]-3,17-bis[(2R)-3-amino-2-hydroxy-propoxy]-18-methoxy-11-methyl-10,13-dioxo-9,12-diazatri-cyclo[13.3.1.12,6]icosa-1(18),2(20),3,5,15(19), 16-hexaene-8-carboxylic acid] | 16 (≈ 16.4 µg/mL) | 16 (≈ 16.4 µg/mL) | 0.75 (≈ 0.767 µg/mL) | 0.5 (≈ 0.511 µg/mL) | 8
2 | 6 (≈ 6.17 µg/mL) | 6 (≈ 6.17 µg/mL) | 0.38 (≈ 0.391 µg/mL) | 0.5 (≈ 0.514 µg/mL) | 3 (≈ 3.09 µg/mL) | C[C@@H]1NC(=O)[C@@H](N(C)C(=O)[C@H](CNS(N)(=O)=O)NC(=O)c2c(N)nc(-c3ccc(C(C)(C)C)cc3)nc2Cl)c2cc(OC[C@H](O)CN)c(O)c(c2)-c2cc(ccc2OC[C@H](O)CN)C[C@@H](C(=O)O)NC1=O [Example 53, (8S,11S,14S)-14-[[(2S)-2-[[4-amino-2-(4-tert-butylphenyl)-6-chloro-pyrimidine-5-carbonyl]amino]-3-(sulfamoylamino)-propanoyl]-methyl-amino]-3,17-bis[(2R)-3-amino-2-hydroxy-propoxy]-18-hydroxy-11-methyl-10,13-dioxo-9,12-diazatri-cyclo[13.3.1.12,6]icosa-1(18),2(20),3,5,15(19), 16-hexaene-8-carboxylic acid] | – | – | – | – | –
3 | 6 (≈ 5.78 µg/mL) | 6 (≈ 5.78 µg/mL) | 0.19 (≈ 0.183 µg/mL) | 0.19 (≈ 0.183 µg/mL) | 6 (≈ 5.78 µg/mL) | C[C@@H]1NC(=O)[C@@H](N(C)C(=O)[C@H](CCN)NC(=O)c2c(N)nc(-c3ccc(C(C)(C)C)cc3)nc2Cl)c2cc(OC[C@H](O)CN)c(O)c(c2)-c2cc(ccc2OC[C@H](O)CN)C[C@@H](C(=O)O)NC1=O [Example 55, (8S,11S,14S)-18-hydroxy-11-methyl-14-[methyl-[(2S)-4-amino-2-[[4-amino-2-(4-tert-butylphenyl)-6-chloro-pyrimidine-5-carbonyl]amino]-butanoyl]amino]-10,13-dioxo-3,17-bis[(2R)-3-amino-2-hydroxy-propoxy]-9,12-diazatricyclo-[13.3.1.12,6]icosa-1(18),2(20),3,5,15(19), 16-hexaene-8-carboxylic acid] | – | – | – | – | –
4 | 8 (≈ 7.7 µg/mL) | 8 (≈ 7.7 µg/mL) | 0.19 (≈ 0.183 µg/mL) | 0.13 (≈ 0.125 µg/mL) | 8 (≈ 7.7 µg/mL) | C[C@@H]1NC(=O)[C@@H](N(C)C(=O)[C@H](CCN)NC(=O)c2c(N)cc(-c3ccc(C(C)(C)C)cc3)nc2Cl)c2cc(OC[C@H](O)CN)c(O)c(c2)-c2cc(ccc2OC[C@H](O)CN)C[C@@H](C(=O)O)NC1=O [Example 51, (8S,11S,14S)-18-hydroxy-11-methyl-14-[methyl-[(2S)-4-amino-2-[[4-amino-6-(4-tert-butylphenyl)-2-chloro-pyridine-3-carbonyl]amino]-butanoyl]amino]-10,13-dioxo-3,17-bis[(2R)-3-amino-2-hydroxy-propoxy]-9,12-diazatricyclo-[13.3.1.12,6]icosa-1(18),2(20),3,5,15(19), 16-hexaene-8-carboxylic acid] | – | – | – | – | –
